Measured values reported in doi:10.1101/2024.08.19.608619, “Discovery of potent SARS-CoV-2 nsp3 macrodomain inhibitors uncovers lack of translation to cellular antiviral response” (bioRxiv, 2024).
Where two headings read alike, the source gives them in different places.

Key:
Assay in all cases: biochemical
Set-up in all cases: In vitro kinase panel profiling, per cent remaining kinase activity at 10 uM
[1] = molecular target: T1, PKG1α(h) (Homo sapiens, UniProt Q13976); conditions: atp_concentration=90, read-out: % of control remaining
T1 construct: gene PRKG1; isoform alpha
T1 sequence (Q13976 1-671): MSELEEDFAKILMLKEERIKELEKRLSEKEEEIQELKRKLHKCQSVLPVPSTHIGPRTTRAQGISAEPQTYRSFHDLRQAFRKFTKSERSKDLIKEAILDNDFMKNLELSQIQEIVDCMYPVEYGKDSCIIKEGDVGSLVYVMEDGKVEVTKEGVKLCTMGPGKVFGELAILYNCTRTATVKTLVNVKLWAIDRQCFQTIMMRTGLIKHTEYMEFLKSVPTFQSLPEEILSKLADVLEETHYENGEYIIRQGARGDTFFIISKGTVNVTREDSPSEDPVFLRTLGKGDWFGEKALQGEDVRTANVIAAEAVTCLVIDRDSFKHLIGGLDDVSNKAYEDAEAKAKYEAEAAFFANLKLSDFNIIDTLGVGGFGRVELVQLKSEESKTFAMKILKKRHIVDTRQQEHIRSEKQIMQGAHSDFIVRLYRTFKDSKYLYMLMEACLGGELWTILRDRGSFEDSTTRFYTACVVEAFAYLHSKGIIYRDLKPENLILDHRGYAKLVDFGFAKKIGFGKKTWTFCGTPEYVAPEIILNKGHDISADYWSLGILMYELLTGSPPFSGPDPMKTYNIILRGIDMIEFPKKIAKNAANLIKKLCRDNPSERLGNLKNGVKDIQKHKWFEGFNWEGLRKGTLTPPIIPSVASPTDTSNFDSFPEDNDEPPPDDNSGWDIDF
From the text: (§1) We derisk potential for off-target activity by profiling the compound in a CEREP panel, a standard secondary pharmacology assessment, as well as a kinase panel to derisk a potential hinge-binding motif in our leads, and a PARP panel to derisk activity against human […]. Reassuringly, the compounds are selective, with the only off-targets being moderate human CHRM2 and KOR receptors activity associated with ASAP-0011198.

[2] = molecular target: T2, NEK2(h) (Homo sapiens, UniProt P51955); conditions: atp_concentration=120, read-out: % of control remaining
T2 sequence (P51955 1-445): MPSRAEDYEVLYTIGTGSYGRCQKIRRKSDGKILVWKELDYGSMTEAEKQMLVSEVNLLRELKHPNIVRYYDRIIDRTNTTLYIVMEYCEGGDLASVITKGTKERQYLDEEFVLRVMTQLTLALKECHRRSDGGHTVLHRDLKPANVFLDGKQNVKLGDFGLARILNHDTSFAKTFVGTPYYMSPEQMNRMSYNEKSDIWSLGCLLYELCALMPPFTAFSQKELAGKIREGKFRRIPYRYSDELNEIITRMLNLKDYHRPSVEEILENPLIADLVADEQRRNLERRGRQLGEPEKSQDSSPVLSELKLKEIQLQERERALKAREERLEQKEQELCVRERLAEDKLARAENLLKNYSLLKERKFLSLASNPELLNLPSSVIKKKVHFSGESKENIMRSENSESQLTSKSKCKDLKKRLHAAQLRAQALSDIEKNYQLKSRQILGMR
From the text: as §1

[3] = molecular target: T3, Rsk1(h) (Homo sapiens, UniProt Q15418); conditions: atp_concentration=45, read-out: % of control remaining
T3 construct: gene RPS6KA1
T3 sequence (Q15418 whole entry): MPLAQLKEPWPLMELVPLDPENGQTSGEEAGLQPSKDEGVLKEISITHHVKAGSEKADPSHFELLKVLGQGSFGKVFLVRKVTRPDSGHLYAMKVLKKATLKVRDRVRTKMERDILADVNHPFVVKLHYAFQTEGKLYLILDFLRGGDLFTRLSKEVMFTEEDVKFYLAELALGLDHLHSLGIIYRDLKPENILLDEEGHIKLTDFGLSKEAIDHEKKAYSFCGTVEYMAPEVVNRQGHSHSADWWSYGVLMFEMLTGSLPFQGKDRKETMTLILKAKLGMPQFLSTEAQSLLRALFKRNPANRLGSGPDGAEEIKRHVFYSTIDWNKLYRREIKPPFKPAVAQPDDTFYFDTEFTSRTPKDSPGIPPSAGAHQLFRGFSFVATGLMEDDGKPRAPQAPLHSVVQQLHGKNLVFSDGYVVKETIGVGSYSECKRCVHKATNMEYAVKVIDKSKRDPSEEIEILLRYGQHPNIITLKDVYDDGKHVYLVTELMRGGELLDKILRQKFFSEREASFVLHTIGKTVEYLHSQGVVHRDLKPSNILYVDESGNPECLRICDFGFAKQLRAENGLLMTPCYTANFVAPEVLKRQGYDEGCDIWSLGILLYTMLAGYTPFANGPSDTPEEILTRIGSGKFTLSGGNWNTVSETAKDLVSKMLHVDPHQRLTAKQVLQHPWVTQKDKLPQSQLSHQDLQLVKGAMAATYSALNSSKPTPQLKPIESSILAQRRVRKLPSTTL
From the text: as §1

[4] = molecular target: T4, eEF-2K(h) (Homo sapiens, UniProt O00418); conditions: atp_concentration=15, read-out: % of control remaining
T4 construct: gene EEF2K
T4 sequence (O00418 1-725): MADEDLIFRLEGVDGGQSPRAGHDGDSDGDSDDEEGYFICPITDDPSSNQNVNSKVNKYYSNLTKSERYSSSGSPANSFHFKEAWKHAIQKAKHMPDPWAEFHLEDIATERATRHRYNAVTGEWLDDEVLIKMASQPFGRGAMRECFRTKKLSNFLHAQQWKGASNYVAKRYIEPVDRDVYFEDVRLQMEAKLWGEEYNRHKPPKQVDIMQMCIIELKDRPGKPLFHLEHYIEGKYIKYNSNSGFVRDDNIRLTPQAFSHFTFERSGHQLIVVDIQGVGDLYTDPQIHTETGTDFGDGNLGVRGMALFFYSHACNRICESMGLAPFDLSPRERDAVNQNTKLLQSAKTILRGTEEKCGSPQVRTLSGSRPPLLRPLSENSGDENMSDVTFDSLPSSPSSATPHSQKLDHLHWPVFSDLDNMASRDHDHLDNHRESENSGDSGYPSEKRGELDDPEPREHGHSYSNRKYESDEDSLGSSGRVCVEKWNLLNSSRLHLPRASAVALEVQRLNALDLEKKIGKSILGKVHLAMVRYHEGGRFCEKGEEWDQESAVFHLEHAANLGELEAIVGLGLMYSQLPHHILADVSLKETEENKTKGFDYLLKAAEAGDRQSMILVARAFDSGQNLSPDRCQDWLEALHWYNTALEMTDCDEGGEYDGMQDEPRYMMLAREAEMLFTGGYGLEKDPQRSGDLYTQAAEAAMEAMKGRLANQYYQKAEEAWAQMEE
From the text: as §1

[5] = molecular target: T5, CHK1(h) (Homo sapiens, UniProt O14757); conditions: atp_concentration=90, read-out: % of control remaining
T5 construct: gene CHEK1
T5 sequence (O14757 1-476): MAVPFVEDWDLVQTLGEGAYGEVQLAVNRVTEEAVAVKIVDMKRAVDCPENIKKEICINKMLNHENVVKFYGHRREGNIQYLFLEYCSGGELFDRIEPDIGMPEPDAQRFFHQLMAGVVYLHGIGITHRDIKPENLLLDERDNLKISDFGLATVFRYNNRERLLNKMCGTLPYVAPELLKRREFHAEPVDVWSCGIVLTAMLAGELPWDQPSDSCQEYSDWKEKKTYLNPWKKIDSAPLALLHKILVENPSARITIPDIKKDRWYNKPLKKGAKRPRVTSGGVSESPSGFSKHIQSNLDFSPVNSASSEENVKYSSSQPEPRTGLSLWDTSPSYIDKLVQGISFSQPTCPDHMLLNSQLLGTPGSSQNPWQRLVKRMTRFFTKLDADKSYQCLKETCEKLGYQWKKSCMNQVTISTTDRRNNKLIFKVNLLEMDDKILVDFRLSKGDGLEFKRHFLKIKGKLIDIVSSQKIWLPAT
From the text: as §1

## CC(C)C(Nc1ncnc2[nH]ccc12)c1ccc2c(c1)S(=O)(=O)CCC2 (centres unmarked) [ASAP-0008327]
[1]; batch_name=ASAP-0008327-001
  remaining activity at 10 µM: 88%
[2]; batch_name=ASAP-0008327-001
  remaining activity at 10 µM: 118%
[3]; batch_name=ASAP-0008327-001
  remaining activity at 10 µM: 92%
[4]; batch_name=ASAP-0008327-001
  remaining activity at 10 µM: 92%
[5]; batch_name=ASAP-0008327-001
  remaining activity at 10 µM: 84%

## COc1ccc([C@@H](Cc2nnn[nH]2)NC(=O)c2ncnc3[nH]ccc23)cc1 [ASAP-0008340]
[1]; batch_name=ASAP-0008340-001
  remaining activity at 10 µM: 95%
[2]; batch_name=ASAP-0008340-001
  remaining activity at 10 µM: 100%
[3]; batch_name=ASAP-0008340-001
  remaining activity at 10 µM: 98%
[4]; batch_name=ASAP-0008340-001
  remaining activity at 10 µM: 96%
[5]; batch_name=ASAP-0008340-001
  remaining activity at 10 µM: 95%

## CC(C)[C@@H](Nc1ncnc2[nH]c(-c3cnn(C)c3C#N)cc12)c1ccc2c(n1)OCCO2 [ASAP-0008418]
[1]; batch_name=ASAP-0008418-001
  remaining activity at 10 µM: 100%
[2]; batch_name=ASAP-0008418-001
  remaining activity at 10 µM: 94%
[3]; batch_name=ASAP-0008418-001
  remaining activity at 10 µM: 145%
[4]; batch_name=ASAP-0008418-001
  remaining activity at 10 µM: 111%
[5]; batch_name=ASAP-0008418-001
  remaining activity at 10 µM: 108%

## CC(C)[C@H](Nc1ncnc2[nH]ccc12)c1ccc2c(c1)S(=O)(=O)CCC2 [ASAP-0008674]
[1]; batch_name=ASAP-0008674-002
  remaining activity at 10 µM: 123%
[2]; batch_name=ASAP-0008674-002
  remaining activity at 10 µM: 109%
[3]; batch_name=ASAP-0008674-002
  remaining activity at 10 µM: 102%
[4]; batch_name=ASAP-0008674-002
  remaining activity at 10 µM: 93%
[5]; batch_name=ASAP-0008674-002
  remaining activity at 10 µM: 110%

## CC(C)[C@H](Nc1ncnc2[nH]c(-c3cnn(C)c3C#N)cc12)c1ccc2c(n1)OCCO2 [ASAP-0010715]
[1]; batch_name=ASAP-0010715-002
  remaining activity at 10 µM: 130%
[2]; batch_name=ASAP-0010715-002
  remaining activity at 10 µM: 105%
[3]; batch_name=ASAP-0010715-002
  remaining activity at 10 µM: 120%
[4]; batch_name=ASAP-0010715-002
  remaining activity at 10 µM: 108%
[5]; batch_name=ASAP-0010715-002
  remaining activity at 10 µM: 119%

## CC(C)[C@@H](Nc1ncnc2[nH]c(-c3cnn(C)c3C#N)cc12)c1ccc2c(n1)OCCO2 [ASAP-0010716]
[1]; batch_name=ASAP-0010716-002
  remaining activity at 10 µM: 123%
[2]; batch_name=ASAP-0010716-002
  remaining activity at 10 µM: 76%
[3]; batch_name=ASAP-0010716-002
  remaining activity at 10 µM: 102%
[4]; batch_name=ASAP-0010716-002
  remaining activity at 10 µM: 106%
[5]; batch_name=ASAP-0010716-002
  remaining activity at 10 µM: 120%

## CNCc1cc(-c2cc3c(N[C@@H](c4ccc5c(c4)S(=O)(=O)CCC5)C(C)C)ncnc3[nH]2)co1 [ASAP-0011176]
[1]; batch_name=ASAP-0011176-002
  remaining activity at 10 µM: 115%
[2]; batch_name=ASAP-0011176-002
  remaining activity at 10 µM: 105%
[3]; batch_name=ASAP-0011176-002
  remaining activity at 10 µM: 90%
[4]; batch_name=ASAP-0011176-002
  remaining activity at 10 µM: 82%
[5]; batch_name=ASAP-0011176-002
  remaining activity at 10 µM: 111%

## CC(C)C(Nc1ncnc2[nH]c(C(=O)NC3CCN(C)C3)cc12)c1ccc2c(c1)S(=O)(=O)CCC2 (centres unmarked) [ASAP-0011198]
[1]; batch_name=ASAP-0011198-002
  remaining activity at 10 µM: 116%
[2]; batch_name=ASAP-0011198-002
  remaining activity at 10 µM: 118%
[3]; batch_name=ASAP-0011198-002
  remaining activity at 10 µM: 94%
[4]; batch_name=ASAP-0011198-002
  remaining activity at 10 µM: 89%
[5]; batch_name=ASAP-0011198-002
  remaining activity at 10 µM: 118%

## Cn1ncc(-c2cc3c(N[C@@H](c4ccc5c(n4)OCCO5)C(C)(C)C)ncnc3[nH]2)c1C#N [ASAP-0011221]
[1]; batch_name=ASAP-0011221-002
  remaining activity at 10 µM: 127%
[2]; batch_name=ASAP-0011221-002
  remaining activity at 10 µM: 104%
[3]; batch_name=ASAP-0011221-002
  remaining activity at 10 µM: 136%
[4]; batch_name=ASAP-0011221-002
  remaining activity at 10 µM: 124%
[5]; batch_name=ASAP-0011221-002
  remaining activity at 10 µM: 125%

## Cc1nn(C)cc1-c1cc2c(NC(c3ccc4c(c3)S(=O)(=O)CCC4)C(C)C)ncnc2[nH]1 (centres unmarked) [ASAP-0011446]
[1]; batch_name=ASAP-0011446-002
  remaining activity at 10 µM: 128%
[2]; batch_name=ASAP-0011446-002
  remaining activity at 10 µM: 98%
[3]; batch_name=ASAP-0011446-002
  remaining activity at 10 µM: 110%
[4]; batch_name=ASAP-0011446-002
  remaining activity at 10 µM: 98%
[5]; batch_name=ASAP-0011446-002
  remaining activity at 10 µM: 102%
